Data on 27 molecules can be found in ChEMBL document CHEMBL1150434, “Semisynthetic modification of hygromycin A. 1. Synthesis and antibacterial activity of vinyl methyl and amide analogs” (1992).

SMILES strings stand for the structures. ≈ marks a conversion by molar mass, not a printed value. Calls of active or inactive are those of the source.

For one assay, the system named is Brachyspira hyodysenteriae. As to the kind of experiment: Tested for antibacterial activity against Serpulina hyodysenteriae at a concentration of up to 200 ug/mL; IA= Inactive. Format: functional, organism-based.
Turning to `C/C(=C\c1ccc(O[C@@H]2O[C@H]([C@H](C)O)[C@@H](O)[C@@H]2O)c(O)c1)C(=O)N1CCCCC1CO` (some centres not stated), the outcome was inactive.

`C/C(=C\c1ccc(O[C@@H]2O[C@H]([C@H](C)O)[C@@H](O)[C@@H]2O)c(O)c1)C(=O)N[C@@H]1CCCC[C@H]1O`: the outcome was inactive.

In the case of `C/C(=C\c1ccc(O[C@@H]2O[C@H]([C@H](C)O)[C@@H](O)[C@@H]2O)c(O)c1)C(=O)NC1(CO)CCCC1`, the result was inactive.

Turning to `C/C(=C\c1ccc(O[C@@H]2O[C@H]([C@H](C)O)[C@@H](O)[C@@H]2O)c(O)c1)C(=O)N1CCNCC1`, the outcome was inactive.

For the molecule `C/C(=C\c1ccc(O[C@@H]2O[C@H]([C@H](C)O)[C@@H](O)[C@@H]2O)c(O)c1)C(=O)N1CCC[C@H]1CO`, the result was inactive.

Regarding `C/C(=C\c1ccc(O[C@@H]2O[C@H]([C@H](C)O)[C@@H](O)[C@@H]2O)c(O)c1)C(=O)N[C@H]1CC[C@H](O)CC1`, the outcome was inactive.

Take `C/C(=C\c1ccc(O[C@@H]2O[C@H]([C@H](C)O)[C@@H](O)[C@@H]2O)c(O)c1)C(=O)N[C@@H]1CCCC[C@@H]1O`: the outcome was inactive.

For `C/C(=C\c1ccc(O[C@@H]2O[C@H]([C@H](C)O)[C@@H](O)[C@@H]2O)c(O)c1)C(=O)NC1CCCCC1`, the outcome was inactive.

For the molecule `C/C(=C\c1ccc(O[C@@H]2O[C@H]([C@H](C)O)[C@@H](O)[C@@H]2O)c(O)c1)C(=O)N1CCOCC1`, the outcome was inactive.

Take `C/C(=C\c1ccc(O[C@@H]2O[C@H]([C@H](C)O)[C@@H](O)[C@@H]2O)c(O)c1)C(=O)NCCO`: the result was inactive.

Take `C/C(=C\c1ccc(O[C@@H]2O[C@H]([C@H](C)O)[C@@H](O)[C@@H]2O)c(O)c1)C(=O)N1CCN(C(=O)N2CCNCC2)CC1`: the outcome was inactive.

Regarding `C/C(=C\c1ccc(O[C@@H]2O[C@H]([C@H](C)O)[C@@H](O)[C@@H]2O)c(O)c1)C(=O)NC(CO)CO`, the result was inactive.

For `C/C(=C\c1ccc(O[C@@H]2O[C@H]([C@H](C)O)[C@@H](O)[C@@H]2O)c(O)c1)C(=O)N1CCN(C)CC1`, the outcome was inactive.

For the molecule `C/C(=C\c1ccc(O[C@@H]2O[C@H]([C@H](C)O)[C@@H](O)[C@@H]2O)c(O)c1)C(=O)N[C@@H]1CCC[C@H]1O`, the result was inactive.

Turning to `C/C(=C\c1ccc(O[C@@H]2O[C@H]([C@H](C)O)[C@@H](O)[C@@H]2O)c(O)c1)C(=O)N[C@H]1C(O)O[C@H](CO)[C@@H](O)[C@@H]1O` (some centres not stated), the result was inactive.

Take `C/C(=C\c1ccc(O[C@@H]2O[C@H]([C@H](C)O)[C@@H](O)[C@@H]2O)c(O)c1)C(=O)N[C@@H]1CCC[C@@H]1O`: the outcome was inactive.

As for `C/C(=C\c1ccc(O[C@@H]2O[C@H]([C@H](C)O)[C@@H](O)[C@@H]2O)c(O)c1)C(=O)N[C@@H]1C(O)O[C@H](CO)[C@@H](O)[C@@H]1O` (some centres not stated), the outcome was inactive.

`C/C(=C\c1ccc(O[C@@H]2O[C@H]([C@H](C)O)[C@@H](O)[C@@H]2O)c(O)c1)C(=O)N1CCC[C@H]1C(=O)O`: the result was inactive.

A further assay concerns Brachyspira hyodysenteriae. The assay is described as follows: Antibacterial activity against Serpulina hyodysenteriae. Format: functional.
Take `C[C@@H](O)[C@H]1O[C@@H](Oc2ccc(/C=C(\Cl)C(=O)N[C@@H]3[C@H](O)[C@@H](O)[C@H]4OCO[C@H]4[C@@H]3O)cc2O)[C@@H](O)[C@@H]1O`: it took 6.25 µg/mL (≈ 11.7 µM) to inhibit growth (MIC).

`C[C@@H](O)[C@H]1O[C@@H](Oc2ccc(/C=C(\Br)C(=O)N[C@@H]3[C@H](O)[C@@H](O)[C@H]4OCO[C@H]4[C@@H]3O)cc2O)[C@@H](O)[C@@H]1O`: the MIC (as a rule, the smallest concentration in the dilution series that meets the test's criterion for growth inhibition) was determined as 3.13 µg/mL (≈ 5.41 µM).

Molecule `C/C(=C\c1ccc(O[C@@H]2O[C@H]([C@@H](C)O)[C@@H](O)[C@@H]2O)c(O)c1)C(=O)N[C@@H]1[C@H](O)[C@@H](O)[C@H]2OCO[C@H]2[C@@H]1O` came in with an MIC of 3.13 µg/mL (≈ 6.1 µM).

Consider `CC(=O)[C@H]1O[C@@H](Oc2ccc(C=C(C)C(=O)N[C@@H]3[C@H](O)[C@@H](O)[C@H]4OCO[C@H]4[C@@H]3O)cc2O)[C@@H](O)[C@@H]1O` [HYGROMYCIN A], for which the MIC was 0.78 µg/mL (≈ 1.52 µM). This MIC is about 4-fold lower than that of the molecule before.

Take `CCC/C(=C\c1ccc(O[C@@H]2O[C@H]([C@@H](C)O)[C@@H](O)[C@@H]2O)c(O)c1)C(=O)N[C@@H]1[C@H](O)[C@@H](O)[C@H]2OCO[C@H]2[C@@H]1O`: the MIC was > 200 µg/mL.

On to `C=CC/C(=C\c1ccc(O[C@@H]2O[C@H]([C@@H](C)O)[C@@H](O)[C@@H]2O)c(O)c1)C(=O)N[C@@H]1[C@H](O)[C@@H](O)[C@H]2OCO[C@H]2[C@@H]1O`, for which the MIC is > 200 µg/mL.

`C[C@@H](O)[C@H]1O[C@@H](Oc2ccc(/C=C/C(=O)N[C@@H]3[C@H](O)[C@@H](O)[C@H]4OCO[C@H]4[C@@H]3O)cc2O)[C@@H](O)[C@@H]1O` registered an MIC of 100 µg/mL (≈ 200 µM).

On to `CC/C(=C\c1ccc(O[C@@H]2O[C@H]([C@@H](C)O)[C@@H](O)[C@@H]2O)c(O)c1)C(=O)N[C@@H]1[C@H](O)[C@@H](O)[C@H]2OCO[C@H]2[C@@H]1O`, for which the MIC amounted to 3.13 µg/mL (≈ 5.93 µM).

The molecule `C#CC/C(=C\c1ccc(O[C@@H]2O[C@H]([C@@H](C)O)[C@@H](O)[C@@H]2O)c(O)c1)C(=O)N[C@@H]1[C@H](O)[C@@H](O)[C@H]2OCO[C@H]2[C@@H]1O` displayed an MIC of 100 µg/mL (≈ 186 µM).
